Results taken from patent US5763406A, “Method for the treatment of conditions caused by herpes virus infections” (Carlbiotech, Ltd. A/S, priority 1991, dated 1998).

Experiments:
[1] = Systemic or local effects reported by treated patients; type: in vivo, human
HSV-1 infection = assay: Patients' earlier aciclovir treatment of HSV-1 outbreaks (case history); type: in vivo, human
Description: The patient had experienced similar lesions during the past 18 years, primarily during the winter months. They would usually experience 3-5 outbreaks each winter lasting 10-14 days before complete resolution. One year ago, they applied aciclovir topical to the lesions and on that occasion, resolution occured in 6-8 days.
When the lesions are treated with a 5% aciclovir ointment, topically, resolution is normally achieved within 6-7 days. […] On this occasion, […] denied any recent use of any topical or systemic therapy.
The patient had experienced outbreaks from HSV-1 […]. Five years ago the patient started to use aciclovir topically on a regular basis, but switched to take aciclovir orally 11/2 years ago. Normally the outbreaks would be on the lips, but occasionally the outbreaks would also appear on the neck and on the buccal mucosa. Without any form of medication, complete resolution would happen within 2-3 weeks and complete resolution by using aciclovir orally would happen within 1-2 weeks.

Row | Structure (SMILES) | systemic or local effects ([1]; Example 1, 10 mg/ml topical three times daily) | systemic or local effects ([1]; Example 4, 10 mg/ml topical four times in 36 hours) | systemic or local effects ([1]; Example 5, 10 mg/ml topical two times daily) | time to resolution (HSV-1 infection; Example 1 patient, aciclovir topical one year ago) | time to resolution (HSV-1 infection; Example 2 patient, 5% aciclovir ointment, topically) | effect of very early treatment of the lesions (HSV-1 infection; Example 2 patient, aciclovir) | effect from the use of aciclovir (HSV-1 infection; Example 4 patient) | time to complete resolution (HSV-1 infection; Example 5 patient, aciclovir orally)
1 | C[C@@H](N)C(=O)N[C@@H](CO)C(=O)N[C@H](C(=O)N[C@H](C(=O)N[C@H](C(=O)N[C@@H](CC(N)=O)C(=O)N[C@@H](Cc1ccc(O)cc1)C(=O)N[C@H](C(N)=O)[C@@H](C)O)[C@@H](C)O)[C@@H](C)O)[C@@H](C)O [(D-Ala^1)-Peptide-T Amide, D-Ala-Ser-Thr-Thr-Thr-Asn-Tyr-Thr-NH2] | did not report any systemic or local effects other than those noted above | did not experience any systemic or local effects other than those noted above | did not observe any systemic or local effects other than those noted above | – | – | – | – | –
2 | Nc1nc2c(ncn2COCCO)c(=O)[nH]1 [aciclovir] | – | – | – | 6 to 8 days | 6 to 7 days | has not been able to stop the vesicles developing into painful ulcers although the ulcers tend to decrease in size | never experienced any effect | 1-2 weeks
